In the NIST ThermoML archive (doi:10.1021/je901085t):

Experiments:
[1] = wn = mass fraction of the nth substance listed; conditions: Capillary rise
[2] = Capillary rise

CC(F)F [1,1-difluoroethane] + CCC
[1]
Conditions | surface tension liquid-gas [mN/m]
248.15 K, w2 = 0.3497 | 14.65
248.24 K, w2 = 0.2008 | 15.35
248.37 K, w2 = 0.4922 | 13.88
253.14 K, w2 = 0.3497 | 13.96
253.15 K, w2 = 0.4922 | 13.25
253.19 K, w2 = 0.2008 | 14.7
258.1 K, w2 = 0.3497 | 13.22
258.1 K, w2 = 0.4922 | 12.55
258.15 K, w2 = 0.2008 | 14.02
263.1 K, w2 = 0.3497 | 12.43
263.18 K, w2 = 0.4922 | 11.93
263.19 K, w2 = 0.2008 | 13.32
268.13 K, w2 = 0.3497 | 11.85
268.16 K, w2 = 0.4922 | 11.19
268.19 K, w2 = 0.2008 | 12.72
273.08 K, w2 = 0.4922 | 10.49
273.15 K, w2 = 0.3497 | 11.2
273.19 K, w2 = 0.2008 | 12.04
278.16 K, w2 = 0.3497 | 10.31
278.18 K, w2 = 0.2008 | 11.35
278.18 K, w2 = 0.4922 | 9.895
283.16 K, w2 = 0.2008 | 10.48
283.16 K, w2 = 0.3497 | 9.754
283.18 K, w2 = 0.4922 | 9.111
288.15 K, w2 = 0.3497 | 9.186
288.17 K, w2 = 0.4922 | 8.51
288.18 K, w2 = 0.2008 | 9.752
293.13 K, w2 = 0.3497 | 8.519
293.16 K, w2 = 0.2008 | 9.136
293.16 K, w2 = 0.4922 | 7.919
298.1 K, w2 = 0.2008 | 8.465
298.1 K, w2 = 0.3497 | 7.79
298.15 K, w2 = 0.4922 | 7.255
303.15 K, w2 = 0.3497 | 6.986
303.18 K, w2 = 0.2008 | 7.708
303.2 K, w2 = 0.4922 | 6.616
308.11 K, w2 = 0.2008 | 7.125
308.11 K, w2 = 0.3497 | 6.317
308.46 K, w2 = 0.4922 | 5.985
313.16 K, w2 = 0.4922 | 5.421
313.18 K, w2 = 0.3497 | 5.675
313.19 K, w2 = 0.2008 | 6.518
318.13 K, w2 = 0.3497 | 5.133
318.14 K, w2 = 0.2008 | 5.897
318.14 K, w2 = 0.4922 | 4.913
323.16 K, w2 = 0.3497 | 4.602
323.17 K, w2 = 0.4922 | 4.269
323.18 K, w2 = 0.2008 | 5.202
328.12 K, w2 = 0.2008 | 4.614
328.12 K, w2 = 0.3497 | 3.958
328.15 K, w2 = 0.4922 | 3.789

CCC [propane]
[2]
Conditions | surface tension liquid-gas [mN/m]
283.16 K | 8.811
288.17 K | 8.134
293.13 K | 7.568
298.1 K | 6.915
303.12 K | 6.349
